The source of these data is article PMC3742231 (International Journal of Molecular Sciences, 2013).

The target in one series is T1, CYP2B6 (Homo sapiens, UniProt P20813).
T1 sequence (P20813 1-491): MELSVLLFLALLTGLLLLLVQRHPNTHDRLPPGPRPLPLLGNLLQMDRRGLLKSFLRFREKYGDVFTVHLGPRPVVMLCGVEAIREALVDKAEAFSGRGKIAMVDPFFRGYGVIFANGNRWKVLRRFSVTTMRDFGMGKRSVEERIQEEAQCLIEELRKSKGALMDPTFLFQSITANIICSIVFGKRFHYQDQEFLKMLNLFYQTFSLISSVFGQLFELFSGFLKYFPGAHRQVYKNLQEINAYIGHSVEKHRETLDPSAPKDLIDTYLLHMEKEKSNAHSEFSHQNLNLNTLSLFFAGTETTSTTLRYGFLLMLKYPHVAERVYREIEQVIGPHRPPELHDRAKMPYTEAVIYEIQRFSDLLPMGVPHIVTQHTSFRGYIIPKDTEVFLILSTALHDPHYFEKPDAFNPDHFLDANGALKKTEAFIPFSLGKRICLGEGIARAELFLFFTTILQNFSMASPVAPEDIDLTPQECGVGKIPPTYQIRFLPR
The experiment in a line: biochemical. As for the experimental part: (§1) Human liver microsomes were prepared and pooled from ten human livers (HL20–24,28–32) as previously described. Human liver samples were obtained from the University Hospital of Oulu as surplus tissue from cadaver kidney transplant donors. The collection of surplus tissue was approved by the Ethics Committee of the Medical Faculty of the University of Oulu, Finland. All donors were Caucasians ranging in age from 21 to 62 years; four were female and six were male. Detailed information on each donor has been published previously. Protein concentrations were measured using the Bradford method.
(§2) In vitro inhibition of CYP isoforms was first assessed using the N-in-one approach (also called the cocktail approach). CYP-selective substrates and reactions are listed in Table 1; concentrations were roughly at or below the respective Michaelis-Menten coefficients. […] A Micromass LCT time-of-flight high-resolution mass spectrometer (Micromass Ltd., Manchester, UK) equipped with a Z-spray electrospray ionization source was used for the monitoring of CYP-selective reactions. Integrated mass chromatogram peak areas were normalized versus internal standards before comparing metabolites in different preparations. More details of the assay are available in previous publications.
(§3) Dixon, Lineweaver-Burk, Hanes, and Hofstee plots were used for the analysis of the type of inhibition.

Series [1] addresses CYP2C19 (Homo sapiens, UniProt P33261). In words: biochemical. The following applies: for pIC50: human liver microsomes, probe 2 μM. The procedure:
as §1, §2, §3
On the technique in general: Microsomes from liver hold many membrane-bound enzymes, among them those of drug oxidation.

The test system of another series is CYP enzyme activities. As to conditions: cultured human hepatocytes. As for the experimental part:
(§4) Freshly isolated human hepatocytes were obtained from the UK Human Tissue Bank (Leicester, UK).
(§5) Omeprazole (CYP1A2 inducer; 30 μM), phenobarbital (CYP2B6 inducer; 1 mM) and rifampicin (CYP2C9, CYP2C19, and CYP3A4 inducer; 50 μM) dissolved in dimethyl sulfoxide (0.5% v/v final), served as reference inducers.

In series [2] the test system is CYP2C19. As to conditions: 0.2, 2 and 20 μM for 48 h. The procedure: as §4, §5
Another series deals with CYP2C9. The following applies: 0.2, 2 and 20 μM for 48 h. As for the experimental part:
as §4, §5

pIC50: −log10 of the molar value.

CYP2C19 (Homo sapiens, UniProt P33261), sequence (P33261 whole entry): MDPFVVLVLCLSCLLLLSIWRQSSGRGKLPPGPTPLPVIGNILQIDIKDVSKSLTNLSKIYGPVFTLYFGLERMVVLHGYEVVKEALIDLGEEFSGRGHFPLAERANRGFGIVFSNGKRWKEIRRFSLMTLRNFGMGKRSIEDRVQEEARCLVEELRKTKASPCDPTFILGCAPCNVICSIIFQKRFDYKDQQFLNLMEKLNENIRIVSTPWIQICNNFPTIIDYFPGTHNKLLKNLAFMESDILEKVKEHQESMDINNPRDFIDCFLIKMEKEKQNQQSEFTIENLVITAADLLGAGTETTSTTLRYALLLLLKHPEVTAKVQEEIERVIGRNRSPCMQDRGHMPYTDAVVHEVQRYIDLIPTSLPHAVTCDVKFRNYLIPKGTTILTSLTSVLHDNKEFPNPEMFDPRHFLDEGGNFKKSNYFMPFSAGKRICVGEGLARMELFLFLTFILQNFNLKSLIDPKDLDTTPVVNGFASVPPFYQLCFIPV

One may read the pIC50 as the IC50 on a negative log10 scale, so that one unit is a factor of ten. Read a low pIC50 as a high IC50. In the case of `OCCOc1ccc(/C(=C(/CCCl)c2ccccc2)c2ccccc2)cc1` [Ospemifene], the pIC50 is 5.11 on CYP2B6; 4.65 at CYP2C19 [1] (IC50, Omeprazole 5-hydroxylation); 4.33 against CYP2C19 [1] (IC50, Omeprazole demethylation). In addition, the Type of inhibition entry at CYP2B6 (results not shown) is on record as “competitive”; on CYP2C19 [1] (results not shown) it was “noncompetitive”. Besides, the “Induction of CYPs” value in the series on CYP enzyme activities is reported as no more than 2.4 fold. Further, in the series with CYP2C19 [2], the “Change in CYP2C19 activity” value was “did not cause any relevant changes”. Besides, the “Change in CYP2C9 activity” value with CYP2C9 is “did not cause any relevant changes”.
